LD₅₀, LD₁₀ and LD₉₀ data for six compounds are collected here from patent EP0517225A1, “Aminopyrrolidine platinum compounds, a process for preparing them and pharmaceutical compositions containing them” (priority 1991, dated 1992).

One series has as its system male BDF₁ mice. The series is described as follows: Acute toxicity test, LD50 i.p. (Litchfield-Wilcoxon method). It counts as in vivo. To be noted: 6-7 week-old male BDF₁ mice, 18-22 g.
In series [1] the test system is E.coli bacterial strain, AB2463 mutant strain (RecA). The series is described as follows: Mutagenicity test: mortality of RecA-deficient E. coli strain. The format is cell-based. As to conditions: RecA strain AB2463, treated for 2 hours at 37 °C. The procedure:
A summary of results in mutagenicity and acute toxicity tests is given hereinbelow. a) Mutagenicity tests: E.coli bacterial strain, AB2463 mutant strain (RecA) was used. […] RecA strain, AB2463 mutant strain, which is defective in the recombination and induction of SOS system, was treated for 2 hours at 37^ºC with compounds of the present invention. […]

`CCC1C(N)CCN1C.[Cl][Pt][Cl]` (stereo not drawn) [Example 3, Cis-dichloro(3-amino-2-ethyl-1-methylpyrrolidine)platinum^(II)] came in with an LD₅₀ in the series on male BDF₁ mice of 82.72 mg/kg. Besides, in series [1], the LD₁₀ amounted to 10.74 µM, the LD₅₀ was 17.89 µM and the LD₉₀ was 35.78 µM.

Regarding `N.N.[Cl][Pt][Cl]` [Cisplatin, reference compound], in series [1], the LD₁₀ was 5.72 µM, the LD₅₀ was determined as 17.0 µM and the LD₉₀ stood at 56.0 µM.

`CCN1CCC(N)C1C.[Cl][Pt][Cl]` (stereo not drawn) [Example 2, Cis-dichloro(3-amino-1-ethyl-2-methylpyrrolidine)platinum^(II)]: the LD₅₀ in the series on male BDF₁ mice came to 60.95 mg/kg. Further, in series [1], the LD₁₀ came out at 15.86 µM, the LD₅₀ was 57.08 µM and the LD₉₀ was 301.27 µM.

As for `CC1C(N)CCN1C.[Cl][Pt][Cl]` (stereo not drawn) [Example 1, Cis-dichloro(3-amino-1,2-dimethylpyrrolidine)platinum^(II)], in the series with male BDF₁ mice, the LD₅₀ came out at 95.02 mg/kg. Besides, in series [1], the LD₁₀ is listed as above 1.2 µM, the LD₅₀ came to 5.98 µM and the LD₉₀ is on record as 13.15 µM.

`N.N.O=C([O-])C1(C(=O)[O-])CCC1.[Pt+2]` [Carboplatin, reference compound] returned an LD₅₀ in the series on male BDF₁ mice of 117.5 mg/kg. Besides, in series [1], the LD₁₀ turned out to be 71.53 µM, the LD₅₀ is reported as 606.0 µM and the LD₉₀ stood at 1599 µM.

The compound `CCC1C(N)CCN1CC.[Cl][Pt][Cl]` (stereo not drawn) [Example 4, Cis-dichloro(3-amino-1,2-diethylpyrrolidine)platinum^(II)] returned an LD₅₀ with male BDF₁ mice of 113.81 mg/kg. In addition, in series [1], the LD₁₀ is 18.97 µM, the LD₅₀ was 35.57 µM and the LD₉₀ was found to be 72.33 µM.
